Data taken from patent publication US8216607B2, “Combination of ceramide and gemcitabine for inducing cell death and uses thereof in treating cancer” (priority 2008, dated 2012).
Like-named read-outs stand apart in the source and are kept apart here.

Experiments:
[1] = tested on: L3.6 human pancreatic adeno-carcinoma
Method: Pancreatic adenocarcinoma (PA), the fifth most common cause of cancer death in the United States is commonly metastatic and unresectable and is poorly responsive to therapy. […] The in vitro cytotoxicity effect of gemcitabine+/−C6 ceramide versus L3.6 pancreatic cancer cell line were measured using MTT assay. In vivo experiments were performed using SCID/Beige/Taconic male mice, 22-25 g, 6-8 weeks old (Taconic Laboratory, Germantown, N.Y., USA). Mice were inoculated s.c. with 2×106L3.6 PA cells. Four days later mice developed primary tumors and chemotherapy was started. Mice were treated 3 times/week for 4 weeks with i.p. injections of gemcitabine (5.0-10.0-15.0 mg/kg) and C6 ceramide (10.0 mg/kg) or combinations of these drugs. Body weight (BW) and diameters of tumors (TD) were measured every week. Diameters of tumors were used to count the volumes of primary tumors: TV. We also studied percent survival and mean survival time (MST). In these experiments we used the new test: mean rate tumor development (MRTD) which reflects the speed of tumor development and was measured by the formula: MTV/MST.
In vivo experiments utilized SCID/Beige/Taconic male mice inoculated S.C. with 2×106 L3.6 pancreatic cells which were treated 4 days post tumor implant with thrice weekly (3×/wk) intraperitoneal (IP) injections of paclitaxel (P) 3.0 mg/kg, oxaliplatin (OX) 2.5 mg/kg, cisplatin (CP) 2.5 mg/kg, gemcitabine (Gem) 15 mg/kg with or without ceramide 10 mg/kg. Chemotherapy dose levels were based on standardized clinical dosing as modified from in vitro data. […] Maximum tumor volume, tumor weight, body weight and survival were recorded. […] Separate histopathology studies recorded short term effects on tumor necrosis, mitotic index and caspase index.

[2] = tested on: L3.6 pancreatic cancer cell line
[3] = dose column 10 mg/kg (gemcitabine or ceramide alone; ceramide 10 mg/kg in combination)

| SMILES | % Survival @ 3 Weeks ([1]; 3 weeks) | % Survival @ 6 Weeks ([1]; 6 weeks) | Tumor Size (cc) ([1]; dose column 5 mg/kg) | Mean Survival Time ([1]; dose column 5 mg/kg (gemcitabine; ceramide 10 mg/kg in combination)) | Tumor Size (cc) ([1]; dose column 10 mg/kg) | Mean Survival Time [1, 3] | Tumor Size (cc) ([1]; dose column 15 mg/kg) | Mean Survival Time ([1]; dose column 15 mg/kg (gemcitabine; ceramide 10 mg/kg in combination)) | Mean Final Tumor Volume ([1]; i.p. 3x/wk from day 4, paclitaxel 3.0, oxaliplatin 2.5, cisplatin 2.5, gemcitabine 15, ceramide 10 mg/kg, observed 6 weeks, in cm³) | Mean Survival Time ([1]; i.p. 3x/wk, paclitaxel 3.0, oxaliplatin 2.5, cisplatin 2.5, gemcitabine 15, ceramide 10 mg/kg) | Mean Body Weight (g) (Time of Death or Sacrifice) ([1]; time of death or sacrifice) | effect on cytotoxicity induced by low dose cisplatin and oxaliplatin [2] | anti-tumor regression and survival induced by Oxaliplatin and Gemcitabine ([1]; combination therapy) | anti tumor effects of co-administered drugs ([1]; with Paclitaxel, Doxorubicin, Cisplatin, Oxaliplatin, Gemcitabine) |
| --- | --- | --- | --- | --- | --- | --- | --- | --- | --- | --- | --- | --- | --- | --- |
| Nc1ccn([C@@H]2O[C@H](CO)[C@@H](O)C2(F)F)c(=O)n1 [Gemcitabine] | 40% | 0% | 0.412 cc | 19.6 ± 3.6 days | 0.376 cc | 27.8 ± 10.2 days | 0.439 cc | 23.2 ± 5.9 days | 1.10 +/−^ | 22.8 ± 4.5 days | 15.6 g |  |  |  |
| CCCCCCCCCCCCC/C=C/[C@@H](O)[C@H](CO)NC(=O)CCCCC [Ceramide, N-hexanoyl-D-sphingosine] |  |  |  |  | 0.253 cc | 27.8 ± 10.2 days |  |  |  |  |  | parallel effects | significantly enhanced | augmented the anti tumor effects |
